Data reported in patent US4442044A, “Process for preparing monoesters and diesters of N-alkyl substituted amino methyl phosphonic acid” (priority 1983, dated 1984).

Assays:
Assay in all cases: post-emergent herbicidal activity, greenhouse
Assay type in all cases: in vivo
Smartweed = system: Smartweed
Procedure, shortened: (§1)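 Post-emergence foliar spray at tabulated application rates, using aliquots of a 1.0% stock in acetone, THF or water plus ~0.4% emulsifier, applied to 2–3-week-old greenhouse plants. Plant injury was rated relative to controls roughly two and four weeks after treatment.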

Sorghum = details: Table II
Procedure, shortened: as §1

Johnsongrass = details: Table I
Procedure, shortened: as §1

Wheat = details: Table II
Procedure, shortened: as §1

Wild Buckwheat = details: Table II
Procedure, shortened: as §1

Barnyardgrass = system: Barnyardgrass
Procedure, shortened: as §1

Cocklebur = system: Cocklebur
Procedure, shortened: as §1

Lambsquarters = system: Lambsquarters
Procedure, shortened: as §1

Hemp Sesbania = details: Table II
Procedure, shortened: as §1

Downy Brome = system: Downy Brome
Procedure, shortened: as §1

Soybean = details: Table II
Procedure, shortened: as §1

Canada Thistle = details: Table I
Procedure, shortened: as §1

Panicum Spp = details: Table II
Procedure, shortened: as §1

Yellow Nutsedge = details: Table I
Procedure, shortened: as §1

Crabgrass = details: Table II
Procedure, shortened: as §1

Rice = details: Table II
Procedure, shortened: as §1

Velvetleaf = system: Velvetleaf
Procedure, shortened: as §1

Morningglory = system: Morningglory
Procedure, shortened: as §1

Quackgrass = details: Table I
Procedure, shortened: as §1

Sugar Beet = details: Table II
Procedure, shortened: as §1

Compound: CCOC(=O)CNCP(=O)(OC(C)CC(=O)OCC)OC(C)CC(=O)OCC (centres unmarked) [Example 15, butanoic acid, 3,3'-[[[[(2-ethoxy-2-oxoethyl]amino]methyl]phospinylidene]bis-(oxy)]bis-, diethyl ester]
- post-emergent herbicidal activity index (Smartweed; Table I, 2 WAT, 5.6 kg/h): 0 (0-24% control)
- post-emergent herbicidal activity index (Smartweed; Table I, 4 WAT, 11.2 kg/h): 0 (0-24% control)
- post-emergent herbicidal activity index (Smartweed; Table II, 2 WAT, 1.12 kg/h): 0 (0-24% control)
- post-emergent herbicidal activity index (Smartweed; Table II, 4 WAT, 5.6 kg/h): 0 (0-24% control)
- post-emergent herbicidal activity index (Sorghum; 2 WAT, 1.12 kg/h): 0 (0-24% control)
- post-emergent herbicidal activity index (Sorghum; 4 WAT, 5.6 kg/h): 0 (0-24% control)
- post-emergent herbicidal activity index (Johnsongrass; 2 WAT, 5.6 kg/h): 0 (0-24% control)
- post-emergent herbicidal activity index (Johnsongrass; 4 WAT, 11.2 kg/h): 0 (0-24% control)
- post-emergent herbicidal activity index (Wheat; 2 WAT, 1.12 kg/h): 0 (0-24% control)
- post-emergent herbicidal activity index (Wheat; 4 WAT, 5.6 kg/h): 1 (25-49% control)
- post-emergent herbicidal activity index (Wild Buckwheat; 2 WAT, 1.12 kg/h): 0 (0-24% control)
- post-emergent herbicidal activity index (Wild Buckwheat; 4 WAT, 5.6 kg/h): 0 (0-24% control)
- post-emergent herbicidal activity index (Barnyardgrass; Table I, 2 WAT, 5.6 kg/h): 0 (0-24% control)
- post-emergent herbicidal activity index (Barnyardgrass; Table I, 4 WAT, 11.2 kg/h): 3 (75-99% control)
- post-emergent herbicidal activity index (Barnyardgrass; Table II, 2 WAT, 1.12 kg/h): 0 (0-24% control)
- post-emergent herbicidal activity index (Barnyardgrass; Table II, 4 WAT, 5.6 kg/h): 0 (0-24% control)
- post-emergent herbicidal activity index (Cocklebur; Table I, 2 WAT, 5.6 kg/h): 0 (0-24% control)
- post-emergent herbicidal activity index (Cocklebur; Table I, 4 WAT, 11.2 kg/h): 1 (25-49% control)
- post-emergent herbicidal activity index (Cocklebur; Table II, 2 WAT, 1.12 kg/h): 0 (0-24% control)
- post-emergent herbicidal activity index (Cocklebur; Table II, 4 WAT, 5.6 kg/h): 0 (0-24% control)
- post-emergent herbicidal activity index (Lambsquarters; Table I, 2 WAT, 5.6 kg/h): 0 (0-24% control)
- post-emergent herbicidal activity index (Lambsquarters; Table I, 4 WAT, 11.2 kg/h): 0 (0-24% control)
- post-emergent herbicidal activity index (Lambsquarters; Table II, 2 WAT, 1.12 kg/h): 0 (0-24% control)
- post-emergent herbicidal activity index (Lambsquarters; Table II, 4 WAT, 5.6 kg/h): 1 (25-49% control)
- post-emergent herbicidal activity index (Hemp Sesbania; 2 WAT, 1.12 kg/h): 0 (0-24% control)
- post-emergent herbicidal activity index (Hemp Sesbania; 4 WAT, 5.6 kg/h): 0 (0-24% control)
- post-emergent herbicidal activity index (Downy Brome; Table I, 2 WAT, 5.6 kg/h): 0 (0-24% control)
- post-emergent herbicidal activity index (Downy Brome; Table I, 4 WAT, 11.2 kg/h): 0 (0-24% control)
- post-emergent herbicidal activity index (Downy Brome; Table II, 2 WAT, 1.12 kg/h): 0 (0-24% control)
- post-emergent herbicidal activity index (Downy Brome; Table II, 4 WAT, 5.6 kg/h): 0 (0-24% control)
- post-emergent herbicidal activity index (Soybean; 2 WAT, 1.12 kg/h): 0 (0-24% control)
- post-emergent herbicidal activity index (Soybean; 4 WAT, 5.6 kg/h): 1 (25-49% control)
- post-emergent herbicidal activity index (Canada Thistle; 2 WAT, 5.6 kg/h): 0 (0-24% control)
- post-emergent herbicidal activity index (Canada Thistle; 4 WAT, 11.2 kg/h): 0 (0-24% control)
- post-emergent herbicidal activity index (Panicum Spp; 2 WAT, 1.12 kg/h): 0 (0-24% control)
- post-emergent herbicidal activity index (Panicum Spp; 4 WAT, 5.6 kg/h): 1 (25-49% control)
- post-emergent herbicidal activity index (Yellow Nutsedge; 2 WAT, 5.6 kg/h): 0 (0-24% control)
- post-emergent herbicidal activity index (Yellow Nutsedge; 4 WAT, 11.2 kg/h): 1 (25-49% control)
- post-emergent herbicidal activity index (Crabgrass; 2 WAT, 1.12 kg/h): 0 (0-24% control)
- post-emergent herbicidal activity index (Crabgrass; 4 WAT, 5.6 kg/h): 2 (50-74% control)
- post-emergent herbicidal activity index (Rice; 2 WAT, 1.12 kg/h): 0 (0-24% control)
- post-emergent herbicidal activity index (Rice; 4 WAT, 5.6 kg/h): 0 (0-24% control)
- post-emergent herbicidal activity index (Velvetleaf; Table I, 2 WAT, 5.6 kg/h): 0 (0-24% control)
- post-emergent herbicidal activity index (Velvetleaf; Table I, 4 WAT, 11.2 kg/h): 0 (0-24% control)
- post-emergent herbicidal activity index (Velvetleaf; Table II, 2 WAT, 1.12 kg/h): 0 (0-24% control)
- post-emergent herbicidal activity index (Velvetleaf; Table II, 4 WAT, 5.6 kg/h): 0 (0-24% control)
- post-emergent herbicidal activity index (Morningglory; Table I, 2 WAT, 5.6 kg/h): 0 (0-24% control)
- post-emergent herbicidal activity index (Morningglory; Table I, 4 WAT, 11.2 kg/h): 1 (25-49% control)
- post-emergent herbicidal activity index (Morningglory; Table II, 2 WAT, 1.12 kg/h): 0 (0-24% control)
- post-emergent herbicidal activity index (Morningglory; Table II, 4 WAT, 5.6 kg/h): 1 (25-49% control)
- post-emergent herbicidal activity index (Quackgrass; 2 WAT, 5.6 kg/h): 0 (0-24% control)
- post-emergent herbicidal activity index (Quackgrass; 4 WAT, 11.2 kg/h): 1 (25-49% control)
- post-emergent herbicidal activity index (Sugar Beet; 2 WAT, 1.12 kg/h): 0 (0-24% control)
- post-emergent herbicidal activity index (Sugar Beet; 4 WAT, 5.6 kg/h): 0 (0-24% control)

Compound: CCOC(=O)CNCP(=O)(OCC1COC(C)(C)O1)OCC1COC(C)(C)O1 (centres unmarked) [Example 22, glycine, N-[[bis[(2,2-dimethyl-1,3-dioxolan-4-yl)methoxy]phosphinyl]methyl]-, ethyl ester]
- post-emergent herbicidal activity index (Smartweed; Table I, 4 WAT, 11.2 kg/h): 0 (0-24% control)
- post-emergent herbicidal activity index (Smartweed; Table I, 4 WAT, 56.0 kg/h): 3 (75-99% control)
- post-emergent herbicidal activity index (Sorghum; 2 WAT, 1.12 kg/h): 0 (0-24% control)
- post-emergent herbicidal activity index (Sorghum; 4 WAT, 5.6 kg/h): 1 (25-49% control)
- post-emergent herbicidal activity index (Johnsongrass; 4 WAT, 11.2 kg/h): 0 (0-24% control)
- post-emergent herbicidal activity index (Johnsongrass; 4 WAT, 56.0 kg/h): 1 (25-49% control)
- post-emergent herbicidal activity index (Wheat; 2 WAT, 1.12 kg/h): 0 (0-24% control)
- post-emergent herbicidal activity index (Wheat; 4 WAT, 5.6 kg/h): 1 (25-49% control)
- post-emergent herbicidal activity index (Wild Buckwheat; 2 WAT, 1.12 kg/h): 0 (0-24% control)
- post-emergent herbicidal activity index (Wild Buckwheat; 4 WAT, 5.6 kg/h): 2 (50-74% control)
- post-emergent herbicidal activity index (Barnyardgrass; Table I, 4 WAT, 11.2 kg/h): 3 (75-99% control)
- post-emergent herbicidal activity index (Barnyardgrass; Table I, 4 WAT, 56.0 kg/h): 3 (75-99% control)
- post-emergent herbicidal activity index (Barnyardgrass; Table II, 2 WAT, 1.12 kg/h): 1 (25-49% control)
- post-emergent herbicidal activity index (Barnyardgrass; Table II, 4 WAT, 5.6 kg/h): 2 (50-74% control)
- post-emergent herbicidal activity index (Cocklebur; Table I, 4 WAT, 11.2 kg/h): 0 (0-24% control)
- post-emergent herbicidal activity index (Cocklebur; Table I, 4 WAT, 56.0 kg/h): 2 (50-74% control)
- post-emergent herbicidal activity index (Cocklebur; Table II, 4 WAT, 5.6 kg/h): 0 (0-24% control)
- post-emergent herbicidal activity index (Lambsquarters; Table I, 4 WAT, 11.2 kg/h): 0 (0-24% control)
- post-emergent herbicidal activity index (Lambsquarters; Table I, 4 WAT, 56.0 kg/h): 3 (75-99% control)
- post-emergent herbicidal activity index (Lambsquarters; Table II, 2 WAT, 1.12 kg/h): 1 (25-49% control)
- post-emergent herbicidal activity index (Lambsquarters; Table II, 4 WAT, 5.6 kg/h): 0 (0-24% control)
- post-emergent herbicidal activity index (Hemp Sesbania; 2 WAT, 1.12 kg/h): 2 (50-74% control)
- post-emergent herbicidal activity index (Downy Brome; Table I, 4 WAT, 11.2 kg/h): 0 (0-24% control)
- post-emergent herbicidal activity index (Downy Brome; Table I, 4 WAT, 56.0 kg/h): 2 (50-74% control)
- post-emergent herbicidal activity index (Downy Brome; Table II, 2 WAT, 1.12 kg/h): 0 (0-24% control)
- post-emergent herbicidal activity index (Downy Brome; Table II, 4 WAT, 5.6 kg/h): 0 (0-24% control)
- post-emergent herbicidal activity index (Soybean; 2 WAT, 1.12 kg/h): 0 (0-24% control)
- post-emergent herbicidal activity index (Soybean; 4 WAT, 5.6 kg/h): 0 (0-24% control)
- post-emergent herbicidal activity index (Canada Thistle; 4 WAT, 11.2 kg/h): 0 (0-24% control)
- post-emergent herbicidal activity index (Canada Thistle; 4 WAT, 56.0 kg/h): 2 (50-74% control)
- post-emergent herbicidal activity index (Panicum Spp; 2 WAT, 1.12 kg/h): 0 (0-24% control)
- post-emergent herbicidal activity index (Panicum Spp; 4 WAT, 5.6 kg/h): 3 (75-99% control)
- post-emergent herbicidal activity index (Yellow Nutsedge; 4 WAT, 11.2 kg/h): 0 (0-24% control)
- post-emergent herbicidal activity index (Yellow Nutsedge; 4 WAT, 56.0 kg/h): 2 (50-74% control)
- post-emergent herbicidal activity index (Crabgrass; 2 WAT, 1.12 kg/h): 1 (25-49% control)
- post-emergent herbicidal activity index (Crabgrass; 4 WAT, 5.6 kg/h): 2 (50-74% control)
- post-emergent herbicidal activity index (Rice; 2 WAT, 1.12 kg/h): 0 (0-24% control)
- post-emergent herbicidal activity index (Rice; 4 WAT, 5.6 kg/h): 0 (0-24% control)
- post-emergent herbicidal activity index (Velvetleaf; Table I, 4 WAT, 11.2 kg/h): 0 (0-24% control)
- post-emergent herbicidal activity index (Velvetleaf; Table I, 4 WAT, 56.0 kg/h): 2 (50-74% control)
- post-emergent herbicidal activity index (Velvetleaf; Table II, 2 WAT, 1.12 kg/h): 0 (0-24% control)
- post-emergent herbicidal activity index (Velvetleaf; Table II, 4 WAT, 5.6 kg/h): 1 (25-49% control)
- post-emergent herbicidal activity index (Morningglory; Table I, 4 WAT, 11.2 kg/h): 1 (25-49% control)
- post-emergent herbicidal activity index (Morningglory; Table I, 4 WAT, 56.0 kg/h): 2 (50-74% control)
- post-emergent herbicidal activity index (Morningglory; Table II, 2 WAT, 1.12 kg/h): 0 (0-24% control)
- post-emergent herbicidal activity index (Morningglory; Table II, 4 WAT, 5.6 kg/h): 1 (25-49% control)
- post-emergent herbicidal activity index (Quackgrass; 4 WAT, 11.2 kg/h): 0 (0-24% control)
- post-emergent herbicidal activity index (Quackgrass; 4 WAT, 56.0 kg/h): 3 (75-99% control)
- post-emergent herbicidal activity index (Sugar Beet; 2 WAT, 1.12 kg/h): 0 (0-24% control)
- post-emergent herbicidal activity index (Sugar Beet; 4 WAT, 5.6 kg/h): 0 (0-24% control)
